Source: patent US5466687A, “Arylidene-1-azacycloalkanes and arylalkyl-1-azacyclo-alkanes, their salts, medicaments containing these compounds and their use, and processes for their preparation” (priority 1992, dated 1995)
≈ marks a conversion by molar mass, not a printed value. Like-named read-outs stand apart in the source and are kept apart here.

Tests used:
[1] = Toxic effects in the mouse after oral administration; format: in vivo; conditions: oral 100 mg/kg, once daily for 4 days
Text: The compounds A to I appeared to be non-toxic at the curative dose.

[2] = test system: human hepatoma cells (HEP-G2); assay: Inhibition of 14C-acetate incorporation in digitonin-precipitatable steroids in HEP-G2 cells; format: cell-based; conditions: Homo sapiens; for percent change in 14C-acetate incorporation into sterols at 0.1 µM: HepG2, 10^-7 mol/l; for percent change in 14C-acetate incorporation into sterols at 0.01 µM: HepG2, 10^-8 mol/l
Description: I. Measurement of the inhibition of ^14 C-acetate incorporation in digitonin-precipitatable steroids:
After 3 days of culture, human hepatoma cells (HEP-G2) are stimulated for 16 hours in cholesterol-free medium. The substances to be tested (dissolved in dimethyl sulphoxide, final concentration 0.1%) are added during this stimulation phase. After the addition of 200 μmol/l of 2-^14 C-acetate, the mixture is then reincubated at 37° C. for a further 2 hours.
The cells are detached and the sterol esters are hydrolyzed and, after extraction, sterols are precipitated using digitonin. The ^14 C-acetate incorporated into digitonin-precipitatable sterols is determined by scintillation measurement.
The investigation of the inhibitory action was carried out at test concentrations of 10^-7 mol/l and 10^-8 mol/l. The test results of the following compounds A to AG of the general formula I are indicated at these test concentrations by way of example: […]

[3] = test system: Aspergillus niger ATCC 16404; assay: Fungistatic activity, serial dilution test; format: cell-based; conditions: ATCC16404, 2 to 4 days at 26° C.
Description: (§1) VI. Determination of fungistatic activity The fungistatic activity was determined by means of the serial dilution test (microtitre system). Sabouraud broth was used as the nutrient medium. The inoculum was approximately 10^4 to 10^5 CFU/ml (CFU=colony-forming units); the incubation time was 2 to 4 days at 26° C. The minimum inhibitory concentration (MIC), i.e. the lowest concentration which no longer allowed visible growth, and the lowest concentration at which a decrease in growth of the test microorganism occurred in comparison with a control were determined. The above mentioned compound I was tested.

Rhodotorula rubra 49 = assay: Fungistatic activity, serial dilution test; format: cell-based; conditions: 2 to 4 days at 26° C.
Description: as §1

[4] = test system: Sacc. carlsbergensis ATCC 9080; assay: Fungistatic activity, serial dilution test; format: cell-based; conditions: Saccharomyces pastorianus, ATCC9080, 2 to 4 days at 26° C.
Description: as §1

[5] = test system: Trichophyton mentagrophytes ATCC 9129; assay: Fungistatic activity, serial dilution test; format: cell-based; conditions: ATCC9129, 2 to 4 days at 26° C.
Description: as §1

[6] = test system: Penicillium notatum CBS 19746; assay: Fungistatic activity, serial dilution test; format: cell-based; conditions: Penicillium chrysogenum, CBS19746, 2 to 4 days at 26° C.
Description: as §1

[7] = test system: Candida albicans ATCC 10231; assay: Fungistatic activity, serial dilution test; format: cell-based; conditions: ATCC10231, 2 to 4 days at 26° C.
Description: as §1

[8] = test system: 2,3-epoxysqualene-lanosterol cyclase; assay: In vivo effect in the rat after oral administration: 2,3-epoxysqualene level in plasma; set-up: species or system rat (male Wistar); conditions: 5 hours after administration
Description: II. Measurement of the in vivo effect in the rat after oral administration
The inhibition of the enzyme 2,3-epoxysqualene-lanosterol cyclase causes an increase in the 2,3-epoxy-squalene level in the liver and plasma. Therefore, the amount of 2,3-epoxysqualene formed therefore serves as a direct measure of the effectiveness in the whole animal. The determination is carried out by the following method:
The test substance suspended in 1.5% strength aqueous methylcellulose is administered via stomach tube to male Wistar rats (160-190 g body weight). 5 hours after administration, blood is obtained retroorbitally from the venous plexus. Plasma is extracted by the method of Bligh and Dyer (Canad. J. Biochem. Physiol. 37, 912, [1959]), purified by means of a precolumn and then analyzed by means of HPLC. The peaks obtained are identified and quantified by means of calibration substances. An internal standard is used to check the reproducibility of the results.
The investigations were carried out using concentrations of 0.1 and 1.0 mg/kg. The results for the above mentioned substances A to M are compiled in the following Table by way of example: […]

[9] = test system: Normal human epidermal keratinocytes (NHEK); assay: Inhibition of cell proliferation of keratinocytes; format: cell-based; conditions: read-out: percentage decrease in cell numbers
Description: V. Inhibition of cell proliferation
Normal human epidermal keratinocytes (NHEK) are cultured under sterile conditions in keratinocyte growth medium (Gibco) in a humidified, 5% CO2 -containing atmosphere. Cells of the third passage are inoculated at a density of 12,000 cells/ml.
After 24 hours, the test substance is added to the medium and the number of cells is determined after a further 48 hours. The results were calculated in comparison to a control and are indicated as the percentage decrease in cell numbers.
The proliferation-inhibiting action of the above mentioned compound A was tested in comparison to simvastatin at concentrations of 10^-6 to 10^-10 mol/l.

[10] = test system: normolipaemic golden hamster; assay: Lipid reduction in the normolipaemic golden hamster; format: in vivo; conditions: 12 days, vs control group
Description: III. Lipid reduction in the normolipaemic golden hamster
Male golden hamsters are fed ad lib with a cholesterol-free hamster diet for 12 days. The substance to be tested is admixed to the feed in concentrations of 0.01 to 0.10%. At the end of the experimental period, the total cholesterol, the HDL fraction and also the VLDL+LDL fraction are determined by standard methods, a control group fed without test substance being used for comparison.
The hypolipidaemic activity of the above mentioned compound A was tested.

[11] = test system: normolipaemic golden hamster; assay: Determination of the lithogenic index in the normolipaemic golden hamster; format: in vivo; conditions: 20 days
Description: IV. Determination of the lithogenic index in the normolipaemic golden hamster
The lithogenic index is a measure of susceptibility to gallstone formation and is defined as the […] in mol %. It was determined by the method of Carey and Small, described in J. Clin. Investig. 61, 998-1026 [1978]. The higher the lithogenic index, the higher the probability of gallstone formation. The determination of the lithogenic index was carried out as follows:
Male golden hamsters are fed ad lib with a cholesterol-free hamster diet for 20 days. The substance to be tested is admixed to the feed in concentrations of 0.01 to 0.1%. At the end of the experimental period, total cholesterol, the HDL fraction and also the VLDL+LDL fraction in the serum, and the bile acids, the cholesterol and the phospholipids in the bile are determined by standard methods.
The compound A described above was tested. The percentage decrease in the lithogenic index was determined relative to the control.

[12] = cited from earlier work
[13] = J. Biol. Chemistry 265, 18075-18078 [1990]; cited from earlier work
laying hens = conditions: FASEB Journal 4, A 533 [1990]; cited from earlier work
smooth muscle cell = conditions: Cardiovasc. Drugs Ther. 5, Suppl. 3, 354 [1991]; cited from earlier work
[14] = read-out: Decrease in growth (lowest concentration)
[15] = Gut 31, 348-350 [1990], Z. Gastroenterol. 29, 242-245 [1991]

In the case of `O=C(c1ccc(Cl)cc1)N1CCC(Cc2ccc(C3=NCCO3)cc2)CC1` [I, 1-(4-chlorobenzoyl)-4-[4-(2-oxazolin-2-yl)benzyl]piperidine], the “toxic effects in the mouse” value [1] was “no toxic effects”, the percent change in 14C-acetate incorporation into sterols at 0.1 µM [2] was -89% and the percent change in 14C-acetate incorporation into sterols at 0.01 µM [2] was -75%. The MIC [3] was > 1020 µg/mL, the minimal effective concentration [3, 14] was 128 µg/mL and the MIC (Rhodotorula rubra 49) was 128 µg/mL (≈ 334 µM). The minimal effective concentration (Rhodotorula rubra 49; [14]) was 32 µg/mL, the MIC [4] was 128 µg/mL (≈ 334 µM) and the minimal effective concentration [4, 14] was 64 µg/mL. It also gave an MIC [5] of 512 µg/mL (≈ 1340 µM), an MIC [6] of 128 µg/mL (≈ 334 µM) and a minimal effective concentration [6, 14] of 64 µg/mL. The MIC [7] was 128 µg/mL (≈ 334 µM), the minimal effective concentration [7, 14] was 64 µg/mL and the “2,3-Epoxysqualene concentration in plasma (rat)” value (“2,3-Epoxysqualene concentration” below) ([8]; 0.1 mg/kg oral) was 3.41 µg/mL. For the same compound, the “2,3-Epoxysqualene concentration” value ([8]; 1.0 mg/kg oral) was 8.41 µg/mL.

Compound `CCC(C)(C)C(=O)O[C@H]1C[C@@H](C)C=C2C=C[C@H](C)[C@H](CC[C@@H]3C[C@@H](O)CC(=O)O3)[C@H]21` [Simvastatin, simvastatin, reference compound] has an inhibition at 0.0001 µM ([9]; 48 h) of 7%, an inhibition at 0.001 µM ([9]; 48 h) of 21% and an inhibition at 0.01 µM ([9]; 48 h) of 20%. The inhibition at 0.1 µM ([9]; 48 h) was 51% and the inhibition at 1 µM ([9]; 48 h) was 68%.

Work on `O=C(c1ccc(Cl)cc1)N1CCC(=Cc2ccc(C3=NCCO3)cc2)CC1` [A, 1-(4-chlorobenzoyl)-4-[4-(2-oxazolin-2-yl)benzylidene]piperidine] yielded an inhibition at 1 µM ([9]; 10^-6 mol/l, 48 hours) of 72%, an inhibition at 0.1 µM ([9]; 10^-7 mol/l, 48 hours) of 73% and an inhibition at 0.01 µM ([9]; 10^-8 mol/l, 48 hours) of 70%. It also gave an inhibition at 0.001 µM ([9]; 10^-9 mol/l, 48 hours) of 48%, an inhibition at 0.0001 µM ([9]; 10^-10 mol/l, 48 hours) of 16% and an HDL ([10]; 0.01% in feed) of -12.4%. The “Total Cholesterol” value ([10]; 0.01% in feed) was -19.8%, the “VLDL + LDL” value ([10]; 0.01% in feed) was -25.0% and the HDL ([10]; 0.03% in feed) was -17.5%. For the same compound, the “Total Cholesterol” value ([10]; 0.03% in feed) was -26.3%, the “VLDL + LDL” value ([10]; 0.03% in feed) was -31.2% and the HDL ([10]; 0.10% in feed) was -13.9%. The “Total Cholesterol” value ([10]; 0.10% in feed) was -25.8%, the “VLDL + LDL” value ([10]; 0.10% in feed) was -36.6% and the “Lithogenic Index (percentage decrease relative to control)” value ([11]; 0.01% in feed) was -24%. For the same compound, the “Lithogenic Index (percentage decrease relative to control)” value ([11]; 0.03% in feed, n.s. = not significant) was -10%, the “Lithogenic Index (percentage decrease relative to control)” value ([11]; 0.1% in feed) was -28% and the “toxic effects in the mouse” value [1] was “no toxic effects”. The percent change in 14C-acetate incorporation into sterols at 0.1 µM [2] was -81%, the percent change in 14C-acetate incorporation into sterols at 0.01 µM [2] was -58% and the “2,3-Epoxysqualene concentration” value ([8]; 0.1 mg/kg oral) was 0.71 µg/mL. For the same compound, the “2,3-Epoxysqualene concentration” value ([8]; 1.0 mg/kg oral) was 3.75 µg/mL.

In the case of `CC[C@H](C)C(=O)O[C@H]1C[C@H](O)C=C2C=C[C@H](C)[C@H](CC[C@@H](O)C[C@@H](O)CC(=O)O)[C@H]21` [pravastatin], the “cholesterol concentration in the bile / lithogenic index” value [12, 15] is listed as “can cause a reduction of the cholesterol concentration in the bile” and the gallstone formation ([12]; in vivo) is listed as “do not lead to increased gallstone formation”.

For `CCN(CC)CCOc1ccc(C(O)(Cc2ccc(Cl)cc2)c2ccc(C)cc2)cc1` (stereo not shown) [triparanol], the “toxic effects leading to withdrawal from the market” value [13] is given as “formation of cataracts, ichthyosis and alopecia”.

With `O=C(c1ccc(C(F)(F)F)cc1)N1CCC(Cc2ccc(C3=NCCO3)cc2)CC1` [H, 4-[4-(2-oxazolin-2-yl)benzyl]-1-(4-trifluoromethylbenzoyl)piperidine] the “toxic effects in the mouse” value [1] was “no toxic effects”, the percent change in 14C-acetate incorporation into sterols at 0.1 µM [2] was -86% and the percent change in 14C-acetate incorporation into sterols at 0.01 µM [2] was -62%. For the same compound, the “2,3-Epoxysqualene concentration” value ([8]; 0.1 mg/kg oral) was 1.70 µg/mL and the “2,3-Epoxysqualene concentration” value ([8]; 1.0 mg/kg oral) was 9.15 µg/mL.

In the case of `CC[C@H](C)C(=O)O[C@H]1C[C@@H](C)C=C2C=C[C@H](C)[C@H](CC[C@@H]3C[C@@H](O)CC(=O)O3)[C@H]21` [lovastatin], the “cholesterol concentration in the bile / lithogenic index” value [12, 15] is given as “can cause a reduction of the cholesterol concentration in the bile”, the gallstone formation [12, 15] is given as “do not lead to increased gallstone formation” and the dissolution of gallstones ([12]; in particular in combination with ursodeoxycholic acid, Gastroenterology 102, A 319 [1992]) is given as “effectiveness”. For the same compound, the “cholesterol content of eggs” value (laying hens) was “lowering of the cholesterol content of eggs” and the “smooth muscle cell proliferation” value (smooth muscle cell) was “inhibition of smooth muscle cell proliferation”.

For `O=C(c1ccc(Cl)cc1)N1CCC(=Cc2ccc(C3=NCCO3)cc2F)CC1` [L, 1-(4-chlorobenzoyl)-4-[2-fluoro-4-(2-oxazolin-2-yl)benzylidene]piperidine], the percent change in 14C-acetate incorporation into sterols at 0.1 µM [2] was -83%, the percent change in 14C-acetate incorporation into sterols at 0.01 µM [2] was -52% and the “2,3-Epoxysqualene concentration” value ([8]; 0.1 mg/kg oral) was 0.44 µg/mL. The “2,3-Epoxysqualene concentration” value ([8]; 1.0 mg/kg oral) was 6.46 µg/mL.

For `O=C(C1CCCCC1)N1CCC(=Cc2ccc(C3=NCCO3)cc2)CC1` [G, 1-cyclohexanecarbonyl-4-[4-(2-oxazolin-2-yl)benzylidene]piperidine], the percent change in 14C-acetate incorporation into sterols at 0.1 µM [2] was -80%, the percent change in 14C-acetate incorporation into sterols at 0.01 µM [2] was -45% and the “2,3-Epoxysqualene concentration” value ([8]; 0.1 mg/kg oral) was 0.36 µg/mL. For the same compound, the “2,3-Epoxysqualene concentration” value ([8]; 1.0 mg/kg oral) was 0.31 µg/mL.
